# Data: ChEMBL document CHEMBL1221210, “A Cdc7 kinase inhibitor restricts initiation of DNA replication and has antitumor activity” (Nat Chem Biol, 2008)
# Assays:
# [1] = Antiproliferative activity against p53 deficient human A2780/E6 cells after 72 hrs by proliferative assay; type: functional, cell-based; conditions: A2780/E6, 72 h
# SW480 [2] = assay: Induction of cell cycle arrest in p53 deficient human SW480 cells assessed as accumulation at subG1 phase at 5 uM after 24hrs by FACS analysis; type: functional
# NHDF [3] = assay: Induction of cell cycle arrest in NHDF assessed as accumulation at subG1 phase at 5 uM after 24hrs by propidium-iodine staining based FACS analysis; conditions: human
# NHDF [4] = assay: Induction of cell cycle arrest in NHDF expressing p53 gene assessed as accumulation at subG1 phase at 5 uM after 24hrs by FACS analysis; type: cell-based; conditions: human
# [5] = Antiproliferative activity against p53 deficient human HCT116/E6 cells after 72 hrs by proliferative assay; type: functional, cell-based; conditions: HCT116-E6, 72 h
# A2780 [6] = assay: Induction of cell cycle arrest in human A2780 cells expressing p53 gene assessed as residual DNA synthesis at 5 uM after 24 hrs by FACS analysis; type: functional
# [7] = Induction of cell cycle arrest in p53 deficient human A2780/E6 cells assessed as accumulation at subG1 phase at 10 uM after 24hrs by FACS analysis; type: functional
# Rattus norvegicus = assay: AUC in rat carrying DMBA-induced mammary carcinoma at 10 mg/kg, iv after 10 hrs; type: ADME, organism-based, Plasma; set-up: time < 10 hr, dose 10 mg/kg, route intravenous; conditions: in vivo
# HeLa [8] = assay: Inhibition of DNA replication in human HeLa cells assessed as interorigin distance between homogenous DNA fibers at 20 uM after 2 hrs by immunofluorescence assay; type: functional
# A2780 [9] = assay: Induction of cell cycle arrest in human A2780 cells expressing p53 gene assessed as residual DNA synthesis at 10 uM after 24 hrs by FACS analysis; type: functional
# HCT-15 [10] = assay: Induction of cell cycle arrest in human HCT15 cells expressing p53 gene assessed as residual DNA synthesis at 5 uM after 24 hrs by FACS analysis; type: functional
# HeLa [11] = assay: Inhibition of DNA replication in human HeLa cells assessed as increase in replication fork speed per min at 5 uM after 2 hrs by immunofluorescence assay; type: functional
# HeLa [12] = assay: Inhibition of DNA replication in human HeLa cells assessed as interorigin distance between homogenous DNA fibers at 2 uM after 4 hrs by immunofluorescence assay; type: functional
# SW480 [13] = assay: Antiproliferative activity against p53 deficient human SW480 cells after 72 hrs by proliferative assay; type: functional, cell-based; conditions: SW480, 72 h
# K562 [14] = assay: Induction of cell cycle arrest in p53 deficient human K562 cells assessed as residual DNA synthesis at 10 uM after 24 hrs by FACS analysis; type: functional
# A2780 [15] = assay: Induction of cell cycle arrest in human A2780 cells expressing p53 gene assessed as accumulation at subG1 phase at 5 uM after 24hrs by FACS analysis; type: functional
# PC-3 [16] = assay: Induction of cell cycle arrest in human PC3 cells expressing p53 gene assessed as residual DNA synthesis at 10 uM after 24 hrs by FACS analysis; type: functional
# HeLa [17] = assay: Inhibition of DNA replication in human HeLa cells assessed as increase in replication fork speed per min at 5 uM after 6 hrs by immunofluorescence assay; type: functional
# HeLa [18] = assay: Inhibition of DNA replication in human HeLa cells assessed as interorigin distance between homogenous DNA fibers at 5 uM after 2 hrs by immunofluorescence assay; type: functional
# U2OS [19] = assay: Antiproliferative activity against human U2OS cells expressing p53 gene after 72 hrs by proliferative assay; type: functional, cell-based
# SF-268 = assay: Antiproliferative activity against p53 deficient human SF268 cells after 72 hrs; type: functional, cell-based; conditions: SF-268, 72 h
# [20] = Antiproliferative activity against human NCI60 cells
# Jurkat [21] = assay: Antiproliferative activity against p53 deficient human Jurkat cells after 72 hrs by proliferative assay; type: functional, cell-based
# HeLa [22] = assay: Inhibition of DNA replication in human HeLa cells assessed as increase in replication fork speed per min at 2 uM after 6 hrs by immunofluorescence assay; type: functional
# HCT-15 [23] = assay: Induction of cell cycle arrest in human HCT15 cells expressing p53 gene assessed as accumulation at subG1 phase at 5 uM after 24hrs by FACS analysis; type: functional
# HCT-116 = assay: Induction of cell cycle arrest in human HCT116 cells expressing p53 gene assessed as residual DNA synthesis at 10 uM after 24 hrs by FACS analysis; type: functional
# U2OS [24] = assay: Induction of cell cycle arrest in human U2OS cells expressing p53 gene assessed as accumulation at subG1 phase at 5 uM after 24hrs by FACS analysis; type: functional
# OVCAR-8 = assay: Induction of cell cycle arrest in p53 deficient human OVCAR8 cells assessed as accumulation at subG1 phase at 10 uM after 24 hrs by FACS analysis; type: functional
# [25] = Induction of cell cycle arrest in p53 deficient human HCT116-E6 cells assessed as accumulation at subG1 phase at 10 uM after 24hrs by FACS analysis; type: functional
# COLO 205 = assay: Induction of cell cycle arrest in p53 deficient human COLO205 cells assessed as accumulation at subG1 phase at 5 uM after 24hrs by FACS analysis; type: functional
# [26] = Induction of cell cycle arrest in NHDF assessed as accumulation at subG1 phase at 5 uM after 24hrs by propidium-iodine staining based FACS analysis in presence of p53 specific siRNA; conditions: human
# [27] = biological target: Tyrosine-protein kinase ZAP-70 (Homo sapiens, UniProt P43403); assay: Inhibition of ZAP70
# Tyrosine-protein kinase ZAP-70, sequence (P43403 whole entry): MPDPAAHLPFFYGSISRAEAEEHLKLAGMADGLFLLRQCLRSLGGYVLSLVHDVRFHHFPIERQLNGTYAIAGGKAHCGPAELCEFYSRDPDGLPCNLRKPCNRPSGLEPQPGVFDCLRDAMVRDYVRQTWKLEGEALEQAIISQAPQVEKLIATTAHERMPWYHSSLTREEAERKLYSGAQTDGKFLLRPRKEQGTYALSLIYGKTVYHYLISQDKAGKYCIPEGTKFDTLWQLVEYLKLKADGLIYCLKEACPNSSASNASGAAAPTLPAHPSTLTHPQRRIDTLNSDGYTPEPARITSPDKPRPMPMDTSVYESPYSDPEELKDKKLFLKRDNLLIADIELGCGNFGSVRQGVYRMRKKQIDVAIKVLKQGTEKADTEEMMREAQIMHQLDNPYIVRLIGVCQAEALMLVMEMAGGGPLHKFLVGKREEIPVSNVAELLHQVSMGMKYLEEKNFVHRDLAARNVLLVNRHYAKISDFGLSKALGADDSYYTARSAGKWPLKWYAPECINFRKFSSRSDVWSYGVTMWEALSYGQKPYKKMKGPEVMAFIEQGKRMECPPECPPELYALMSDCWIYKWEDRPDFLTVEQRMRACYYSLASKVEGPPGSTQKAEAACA
# [28] = Induction of cell cycle arrest in p53 deficient human A2780/E6 cells as accumulation at subG1 phase at 5 uM after 24hrs by FACS analysis; type: functional
# PC-3 [29] = assay: Induction of cell cycle arrest in human PC3 cells expressing p53 gene assessed as accumulation at subG1 phase at 10 uM after 24 hrs by FACS analysis; type: functional
# SF-539 = assay: Induction of cell cycle arrest in human SF539 cells expressing p53 gene assessed as accumulation at subG1 phase at 5 uM after 24hrs by FACS analysis; type: functional
# [30] = Induction of cell cycle arrest in p53 deficient human A2780/E6 cells assessed as residual DNA synthesis at 5 uM after 24 hrs by FACS analysis; type: functional
# NHDF [31] = assay: Induction of cell cycle arrest in thymidine deficient NHDF assessed as DNA synthesis in S-phase at 5 uM after 2hrs FACS analysis; type: cell-based; conditions: human
# K562 [32] = assay: Induction of cell cycle arrest in p53 deficient human K562 cells assessed as accumulation at subG1 phase at 10 uM after 24hrs by FACS analysis; type: functional
# Jurkat [33] = assay: Induction of cell cycle arrest in p53 deficient human Jurkat cells assessed as accumulation at subG1 phase at 5 uM after 24hrs by FACS analysis; type: functional
smiles,measurement,setting,value
O=C1NCCc2[nH]c(-c3ccncc3)cc21,IC50,[1],1.5 µM
same,Activity,SW480 [2],>20%
same,Activity,NHDF [3],1.6%
same,Activity,NHDF [4],< 3%
same,IC50,[5],1.48 µM
same,Activity,A2780 [6],<3%
same,Activity,[7],>20%
same,AUC,Rattus norvegicus,21 µM·h
same,Activity,HeLa [8],226 kilobase
same,Activity,A2780 [9],<3%
same,Activity,HCT-15 [10],<3%
same,Activity,HeLa [11],1.86 kilobase
same,Activity,HeLa [12],236 kilobase
same,IC50,SW480 [13],2.67 µM
same,Activity,K562 [14],10%
same,Activity,A2780 [15],>20%
same,Activity,PC-3 [16],<3%
same,Activity,HeLa [17],2.14 kilobase
same,Activity,HeLa [18],210 kilobase
same,IC50,U2OS [19],1.49 µM
same,IC50,SF-268,0.86 µM
same,IC50,[20],3.1 µM
same,IC50,Jurkat [21],3.2 µM
same,Activity,HeLa [22],1.81 kilobase
same,Activity,HCT-15 [23],3%
same,Activity,HCT-116,<3%
same,Activity,U2OS [24],3%
same,Activity,OVCAR-8,3%
same,Activity,[25],3%
same,Activity,COLO 205,10%
same,Activity,[26],6.8%
same,IC50,[27],> 10 µM
same,Activity,[28],>20%
same,Activity,PC-3 [29],3%
same,Activity,SF-539,3%
same,Activity,[30],<3%
same,Activity,NHDF [31],Not Active
same,Activity,K562 [32],<3%
same,Activity,Jurkat [33],>20%
